We go through 1 substance from patent US10487115B2, “Proteinaceous compounds and uses therefor” (UNIVERSITY OF CANBERRA, priority 2016, dated 2019).

For experiment [1], the system named is MDA-MB-231 cells. Description: Live cell population after treatment, MDA-MB-231 cells (FACS). It is filed as cell-based, human. As to conditions: 48 hr treatment, p<0.0001 relative to control. As to the method: (§1) 5×10^4 MDA-MB-231 cells were seeded with 1 mL of complete DMEM in 12 well plates overnight, then importinib4759 (5004 and 100 μM; synthesized in accordance with Example 1) or importinib4759_O1 (2504 and 50 μM; synthesized in accordance with Example 1) were used to treat cells for 48 hr before samples were harvested by trypsinization followed by washing with DPBS containing 2% HI-FBS. FACS staining was performed using anti-human CD44-APC, anti-human CD24-PE, Hoechst, and anti-human EpCAM antibody cocktails. Data was collected from BD FACSLSR-II flow cytometer. Treestar FlowJo was used for data analysis.

Experiment [2] relates to Importin α. Description: Localization of Importin α in PMA-stimulated MCF7 cells (immunofluorescence, Fn/c). It is filed as cell-based, human. As to conditions: 50 μM, p=not significant relative to control. The procedure:
(§2) MCF7 cells were pre-seeded overnight on sterile coverslips in 12 well plates with 1 mL of completed Dulbecco's modified eagle medium (DMEM) before incubating with 50 μM of importinib4759 (synthesized in accordance with Example 1) and importinib4759_O1 (synthesized in accordance with Example 1) for 24 hr. Test peptides were not removed when MCF7 cells were stimulated with 0.65 ng/mL of phorbol 12-myristate 13-acetate (PMA) for 60 hr. Diethylpyrocarbonate (DEPC)-water was used for control (test peptides were dissolved in sterile DEPC-water). After wash with Dulbecco's phosphate buffered saline (DPBS) twice, samples on coverslips were fixed with 4% paraformaldehyde for 10 minutes and stained with PKC-θ (Cat. SC-212), PKC-θ-Phosphor-T538, PKC-β2, PKC-α, Importin α, or Importin 8 primary Antibody respectively and conjugated Alexa-488 secondary Antibody. Cell nucleus was stained with anti-fade 2-(4-amidinophenyl)-6-indolecarbamidine dihydrochloride (DAPI). When samples were dried overnight, Nikon fluorescence microscopy was used to take photos. ImageJ software was used for densimetric analysis. Fn/c was calculated using the formula: Fn/c=(nuclear density-background density)/(cytoplasmic density-background density).

The test system of experiment [3] is MCF7 cells. Description: CD44hiCD24lo cancer stem cell formation in MCF-IM model (FACS). The settings on record: importinib4759 5004 and 100 μM, importinib4759_O1 2504 and 50 μM, 24 hr before PMA 60 hr, p=0.0079 relative to control. It is filed as cell-based, human. As to the method:
as §1, with “5×10^4 MCF7” for “5×10^4 MDA-MB-231”, “for 24” for “for 48”, “before stimulation with PMA for 60 hr. Samples” for “before samples”, “2% heat inactivated foetal bovine serum (HI-FBS).” for “2% HI-FBS.”, “staining were” for “staining was”

Experiment [4] concerns MDA-MB-231 xenograft. Description: Balb/c-nude MDA-MB-231 xenograft breast cancer model: tumor volume and cancer stem cell proportion. It is filed as in vivo, balb/c-nude mice. As to the method:
A Balb/c-nude MDA-MB-231 xenograft breast cancer model was utilized to determine the effect of the importinib peptides alone and in combination with the chemotherapeutic, docetaxel in comparison to a randomized peptide control.
Five week old balb/c-nude mice (n=5 per test compound) were injected with MDA-MB-231 human breast carcinoma cell suspensions (2×10^6 cells in 25 μL PBS mixed with 25 μL of BD Matrigel Matrix) subcutaneously into the right mammary gland. Test compounds in a saline vehicle [4 mg/kg docetaxel; 8 mg/kg, 40 mg/kg and 60 mg/kg importinib4759 or importinib4759_O1 (synthesized in accordance with Example 1); 4 mg/kg docetaxel with 8 mg/kg importinib4759 or importinib4759_O1; 4 mg/kg docetaxel with 40 mg/kg importinib4759 or importinib4759_O1; 4 mg/kg docetaxel with 60 mg/kg importinib4759 or importinib4759_O1; or randomized peptide control] were injected intraperitoneally. Tumor volume was assessed using calipers daily over a period of five weeks following treatment. Animals were sacrificed after the five week period. Tumor grafts were removed using resection and processed into single cell suspensions. The percentage of cancer stem cells was determined using FACS analysis. FACS staining was performed using anti-human CD44-APC, anti-human CD24-PE, Hoechst, and anti-human EpCAM antibody cocktails. Data was collected from BD FACSLSR-II flow cytometer. Treestar FlowJo was used for data analysis. Significance was determined using a one-way ANOVA or Mann-Whitney T-test.

Experiment [5] concerns MCF7 epithelial cells. Description: Live cell population after treatment, MCF7 cells (FACS). It is filed as cell-based, human. The settings on record: same concentration of inhibitor as in MDA-MB-231 cells. As to the method:
as §1, with “5×10^4 MCF7” for “5×10^4 MDA-MB-231”, “for 24” for “for 48”, “before stimulation with PMA for 60 hr. Samples” for “before samples”, “2% heat inactivated foetal bovine serum (HI-FBS).” for “2% HI-FBS.”, “staining were” for “staining was”
as §1

The subject of experiment [6] is p53. As to the kind of experiment: Nuclear expression of p53 in PMA-stimulated MCF7 cells (immunofluorescence, Fn/c). The settings on record: 50 μM 24 hr, PMA 60 hr, p=0.0009. It is filed as cell-based, human. As to the method:
(§3) MCF7 cells were pre-seeded overnight on sterile coverslips in 12 well plates with 1 mL of completed DMEM before inhibiting with 50 μM of importinib4759_O1 (synthesized in accordance with Example 1) for 24 hr. Importinib4759_O1 was removed when MCF7 cells were stimulated with 0.65 ng/mL of PMA for 60 hr. DEPC-water was used as the control (importinib4759_O1 was dissolved in sterile DEPC-water). After washing with DPBS twice, samples on coverslips were fixed with 4% paraformaldehyde for 10 minutes and stained with p65, Rb, or p53 primary Antibody and conjugated Alexa-488 secondary Antibody. Cell nucleus was stained with anti-fade DAPI. When samples were dried overnight, Nikon fluorescence microscopy was used to take photos. ImageJ software was used for densimetric analysis. Fn/c was calculated using the formula: Fn/c=(nuclear density-background density)/(cytoplasmic density-background density).

Experiment [7] concerns Rb. As to the kind of experiment: Expression of tumor suppressor protein Rb in PMA-stimulated MCF7 cells (immunofluorescence, Fn/c). It is filed as cell-based, human. The settings on record: 50 μM 24 hr, PMA 60 hr, p=0.0007. The procedure:
as §3

For experiment [8], the target named is T1, Importin 8 (Homo sapiens, UniProt O15397).
T1 construct: endogenous in cells; host or cells: MCF7
As to the kind of experiment: Localization of Importin 8 in PMA-stimulated MCF7 cells (immunofluorescence, Fn/c). It is filed as cell-based. As to conditions: 50 μM, p=not significant relative to control. The procedure: as §2

In experiment [9] the target is T2, PKC-θ (Homo sapiens, UniProt Q04759).
T2 construct: endogenous in cells; host or cells: MCF7
As to the kind of experiment: Nuclear translocation of PKC-θ in PMA-stimulated MCF7 cells (immunofluorescence, Fn/c). It is filed as cell-based. The procedure: as §2

In experiment [10] the test system is NF-κB p65. Description: Nuclear expression of NF-κB p65 in PMA-stimulated MCF7 cells (immunofluorescence, Fn/c). It is filed as cell-based, human. As to conditions: 50 μM 24 hr, PMA 60 hr, p=0.0033. As to the method: as §3
The target of experiment [11] is T3, PKC-β2 (Homo sapiens, UniProt P05771).
T3 construct: endogenous in cells; host or cells: MCF7
Description: Localization of PKC-β2 in PMA-stimulated MCF7 cells (immunofluorescence, Fn/c). It is filed as cell-based. As to conditions: 50 μM, p=not significant relative to control. As to the method: as §2

Experiment [12] has as its target T4, PKC-α (Homo sapiens, UniProt P17252).
T4 construct: endogenous in cells; host or cells: MCF7
As to the kind of experiment: Localization of PKC-α in PMA-stimulated MCF7 cells (immunofluorescence, Fn/c). It is filed as cell-based. The settings on record: 50 μM, p=not significant relative to control. As to the method: as §2

* marks the point of attachment. Myristoyl = CCCCCCCCCCCCCC(=O)*

T2 sequence (Q04759 whole entry): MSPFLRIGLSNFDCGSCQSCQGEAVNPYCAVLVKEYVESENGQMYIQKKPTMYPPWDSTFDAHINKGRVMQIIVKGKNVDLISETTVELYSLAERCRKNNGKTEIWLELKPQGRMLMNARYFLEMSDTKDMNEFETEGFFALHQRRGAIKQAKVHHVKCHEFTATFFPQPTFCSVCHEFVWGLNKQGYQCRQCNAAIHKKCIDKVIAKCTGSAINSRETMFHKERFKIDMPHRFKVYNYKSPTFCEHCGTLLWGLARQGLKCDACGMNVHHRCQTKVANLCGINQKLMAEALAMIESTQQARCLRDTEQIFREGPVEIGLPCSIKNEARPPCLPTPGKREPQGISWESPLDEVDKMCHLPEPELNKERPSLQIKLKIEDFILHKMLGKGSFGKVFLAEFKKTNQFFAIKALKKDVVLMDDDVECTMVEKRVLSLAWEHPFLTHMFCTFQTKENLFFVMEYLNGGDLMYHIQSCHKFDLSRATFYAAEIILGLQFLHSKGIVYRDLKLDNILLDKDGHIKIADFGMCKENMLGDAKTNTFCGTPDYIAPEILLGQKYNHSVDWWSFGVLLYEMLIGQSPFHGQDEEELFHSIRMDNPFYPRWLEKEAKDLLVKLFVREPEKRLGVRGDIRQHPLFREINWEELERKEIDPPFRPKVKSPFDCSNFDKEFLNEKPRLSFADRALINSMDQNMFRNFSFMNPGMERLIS
T1 sequence (O15397 whole entry): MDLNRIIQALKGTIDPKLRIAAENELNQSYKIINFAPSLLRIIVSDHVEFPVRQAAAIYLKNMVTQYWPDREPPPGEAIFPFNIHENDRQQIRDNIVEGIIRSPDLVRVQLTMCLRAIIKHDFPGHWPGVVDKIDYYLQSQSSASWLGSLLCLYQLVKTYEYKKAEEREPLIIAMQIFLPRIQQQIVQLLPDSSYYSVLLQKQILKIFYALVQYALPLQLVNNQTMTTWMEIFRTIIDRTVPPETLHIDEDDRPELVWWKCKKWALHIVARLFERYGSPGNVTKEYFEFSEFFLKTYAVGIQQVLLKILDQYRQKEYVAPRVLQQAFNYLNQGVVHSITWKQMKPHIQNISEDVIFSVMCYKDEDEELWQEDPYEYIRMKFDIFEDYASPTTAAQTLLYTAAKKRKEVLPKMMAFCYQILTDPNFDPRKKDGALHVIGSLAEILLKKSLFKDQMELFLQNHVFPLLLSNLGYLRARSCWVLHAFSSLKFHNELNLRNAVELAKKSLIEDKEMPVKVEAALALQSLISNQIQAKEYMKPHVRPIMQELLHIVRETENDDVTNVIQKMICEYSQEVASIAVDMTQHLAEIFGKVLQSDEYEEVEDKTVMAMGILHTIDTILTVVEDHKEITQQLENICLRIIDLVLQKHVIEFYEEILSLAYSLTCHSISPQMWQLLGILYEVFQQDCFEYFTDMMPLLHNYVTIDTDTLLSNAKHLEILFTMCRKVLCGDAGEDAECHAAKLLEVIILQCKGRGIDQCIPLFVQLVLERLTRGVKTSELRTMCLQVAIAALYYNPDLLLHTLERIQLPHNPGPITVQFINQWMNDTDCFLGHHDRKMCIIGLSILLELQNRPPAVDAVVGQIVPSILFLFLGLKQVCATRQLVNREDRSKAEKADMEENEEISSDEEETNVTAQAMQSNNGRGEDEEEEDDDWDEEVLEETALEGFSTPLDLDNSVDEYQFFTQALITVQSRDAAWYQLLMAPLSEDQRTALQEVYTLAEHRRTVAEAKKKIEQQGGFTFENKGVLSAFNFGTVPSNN
T3 sequence (P05771 1-673 isoform P05771-2): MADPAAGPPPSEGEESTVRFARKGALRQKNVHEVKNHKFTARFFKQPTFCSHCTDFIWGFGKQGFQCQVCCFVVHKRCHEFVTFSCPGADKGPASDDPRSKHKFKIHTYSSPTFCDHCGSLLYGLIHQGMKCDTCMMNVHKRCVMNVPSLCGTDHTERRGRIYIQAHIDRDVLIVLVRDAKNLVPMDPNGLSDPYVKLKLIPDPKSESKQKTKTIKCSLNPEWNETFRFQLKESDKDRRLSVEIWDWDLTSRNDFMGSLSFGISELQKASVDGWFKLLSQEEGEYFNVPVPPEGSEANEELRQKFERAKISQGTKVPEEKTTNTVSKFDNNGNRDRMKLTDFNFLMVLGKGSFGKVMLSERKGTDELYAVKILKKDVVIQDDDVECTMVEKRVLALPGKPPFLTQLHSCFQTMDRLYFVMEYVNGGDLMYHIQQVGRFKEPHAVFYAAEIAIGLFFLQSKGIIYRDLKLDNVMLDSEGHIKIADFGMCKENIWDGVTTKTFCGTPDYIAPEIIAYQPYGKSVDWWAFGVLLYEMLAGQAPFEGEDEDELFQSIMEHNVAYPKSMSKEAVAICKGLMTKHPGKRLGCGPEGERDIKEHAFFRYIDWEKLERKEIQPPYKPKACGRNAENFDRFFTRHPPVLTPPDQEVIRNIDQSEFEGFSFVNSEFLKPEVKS

On to “RRKRIDWPPRRKPK-OH (Myristoyl-RRKRIDWPPRRKPK-OH; SMILES CCCCCCCCCCCCCC(=O)N[C@@H](CCCNC(=N)N)C(=O)N[C@@H](CCCNC(=N)N)C(=O)N[C@@H](CCCCN)C(=O)N[C@@H](CCCNC(=N)N)C(=O)N[C@H](C(=O)N[C@@H](CC(=O)O)C(=O)N[C@@H](Cc1c[nH]c2ccccc12)C(=O)N1CCC[C@H]1C(=O)N1CCC[C@H]1C(=O)N[C@@H](CCCNC(=N)N)C(=O)N[C@@H](CCCNC(=N)N)C(=O)N[C@@H](CCCCN)C(=O)N1CCC[C@H]1C(=O)N[C@@H](CCCCN)C(=O)O)[C@@H](C)CC) [Importinib4759_O1, tested N-myristoylated]”, for which the “effect on live cell population of MDA-MB-231 cells” value in experiment [1] is listed as “cleared virtually all MDA-MB-231 cells”. The “effect on distribution of Importin α” value in experiment [2] is “had no effect”. Besides, the “cancer stem cell (CD44hiCD24lo) formation” value in experiment [3] is listed as “inhibited”. Further, in [4] (FACS of resected tumor grafts after five weeks), the “cancer stem cell (CD44highCD24low) population in tumor grafts” value is given as “significantly abrogated the cancer stem cell population”. Also, the “tumor volume in comparison to the control or docetaxel treatment alone” value in [4] (intraperitoneal, peptide 8, 40 and 60 mg/kg, docetaxel 4 mg/kg, five weeks) was “abrogated tumor volume”. In addition, the “tumor volume over time” value in [4] (intraperitoneal, peptide 8, 40 and 60 mg/kg, docetaxel 4 mg/kg, five weeks, n=5) is reported as “reduced tumor volume over time”. In addition, in [5], the “effect on live cell population of MCF7 epithelial cells” value is listed as “minimal effect”. In addition, the “nuclear expression of p53” value in experiment [6] was “significantly inhibited nuclear expression”. Further, the “expression of tumor suppressor protein Rb” value in [7] was “enhanced expression”. In addition, in [8], the “effect on distribution of Importin 8” value is given as “had no effect”. The “blocking of nuclear PKC-θ (nuclear translocation)” value in experiment [9] (50 μM peptide 24 hr, then PMA 0.65 ng/mL 60 hr, N-myristoylated peptides, p<0.0001 relative to control) is on record as “capable of blocking nuclear PKC-θ”. The “capacity to prevent PKC-θ nuclear translocation compared to importinib4759” value in [9] (50 μM, PMA stimulated) is “significantly higher capacity to prevent PKC-θ nuclear translocation compared to importinib4759”. In [10], the “nuclear expression of NF-κB p65” value is “significantly inhibited nuclear expression”. Moreover, in [11], the “effect on distribution of PKC-β2” value is “had no effect”. For the same substance, in [12], the “effect on distribution of PKC-α” value is “had no effect”.
